# Literature values as cited in patent publication US20260183709A1, “GAS PURIFICATION METHOD AND GAS PURIFIER” (priority 2022, published 2026).
# Like-named read-outs stand apart in the source and are kept apart here.
# Experiments:
# Influenza A virus = conditions: ozone concentration 0.5 ppm; conditions and time not printed on the line (line above: in the air, 30 minutes)
# [1] = test system: human immunodeficiency virus (HIV); conditions: in serum; ozone concentration 4 ppm
# poliovirus = conditions: in water; ozone concentration 0.13 ppm; acting time 3 minutes
# escherichia coli [2] = conditions: 10° C.; ozone concentration 0.3 ppm; acting time 1 minute
# simian rotavirus = conditions: ozone concentration 0.25 ppm
# cladosporium herbarum = conditions: ozone concentration 23 ppm; acting time 30 minutes; killing rate cell shared with r37
# penicillium citrinum = conditions: ozone concentration 15.4 ppm; acting time 30 minutes; killing rate cell shared with r37
# [3] = test system: bacillus subtilis variant; conditions: in water; ozone concentration 4.6 mg/L; acting time 3 minutes
# F's dysentery bacillus = conditions: phosphate buffer solution; ozone introduction; acting time 15 seconds
# aspergillus versicolor = conditions: in the air; ozone concentration 9.6 ppm; acting time 100 minutes
# mucor = conditions: acting time 30 minutes; killing rate cell shared with penicillium line; no ozone concentration printed
# aspergillus niger = conditions: ozone concentration 1.5 ppm; acting time 1 minute; 'in water' printed on the line above
# penicillium nigricans = conditions: ozone concentration 12.5 ppm; acting time 35 minutes; killing rate cell shared with r37
# staphylococcus aureus = conditions: in the air; ozone concentration 9 ppm; acting time 60 minutes
# escherichia coli phage = conditions: ozone concentration 0.09-0.8 ppm; acting time 3 minutes
# fusarium oxysporum = conditions: ozone concentration 15.5 ppm; acting time 20 minutes; killing rate cell shared with r37
# human rotavirus = conditions: ozone concentration 0.25 ppm
# Vibrio cholerae = conditions: phosphate buffer solution; ozone introduction; acting time 15 seconds
# [4] = test system: bacillus subtilis variant; conditions: in the air; ozone concentration 2.5 mg/L; acting time 1 minute
# Salmonella typhimurium = conditions: phosphate buffer solution; ozone introduction; acting time 15 seconds
# penicillium = conditions: in the air; acting time 30 minutes; no ozone concentration printed
# HBsAg = conditions: in the air; ozone concentration 0.3 ppm; acting time 30 minutes
# [5] = test system: common bacteria such as Escherichia coli, streptococcus, Pseudomonas aeruginosa, Staphylococcus aureus, and toxic bacteria; conditions: in 15 minutes in the ozone environment
# pseudomonas aeruginosa = conditions: ozone concentration 0.08-0.6 ppm; acting time 30 minutes
# pseudomonas fluorescens = conditions: phosphate buffer solution; ozone introduction; acting time 15 seconds
# staphylococcus albus = conditions: ozone concentration 10 ppm; acting time 3 minutes
# HAsAg = conditions: in water; ozone concentration 13.6 ppm; acting time 30 minutes (cells shared with line above)
# escherichia coli [6] = conditions: in the 25° C. air; ozone concentration 0.05 ppm; acting time 30 minutes
structure (smiles),measurement,setting,value
"O=[O+][O-] [Ozone, ozone]",Killing rate,Influenza A virus,100%
same,Killing rate (drop by log values in titer),[1],drop by 6 log values in titer
same,Killing rate,poliovirus,100%
same,sterilization rate faster than chlorine,bacteria; compared with chlorine,600-3000 times
same,bactericidal ability higher than the ultraviolet rays,bacteria; compared with ultraviolet rays,20%
same,sterilization rate faster in the water than chlorine,"bacteria; in the water, compared with chlorine",600 times
same,Killing rate,escherichia coli [2],100%
same,Killing rate,simian rotavirus,100%
same,Killing rate,cladosporium herbarum,100%
same,Killing rate,penicillium citrinum,100%
same,Killing rate,[3],100%
same,Killing rate,F's dysentery bacillus,100%
same,Killing rate,aspergillus versicolor,100%
same,Killing rate,mucor,93.8%
same,Killing rate,aspergillus niger,100%
same,Killing rate,penicillium nigricans,100%
same,Killing rate,staphylococcus aureus,99.97%
same,Killing rate (drop by log values),escherichia coli phage,drop by 7 log log values
same,Killing rate,fusarium oxysporum,100%
same,Killing rate,human rotavirus,100%
same,Killing rate,Vibrio cholerae,100%
same,Killing rate,[4],100%
same,Killing rate,Salmonella typhimurium,100%
same,Killing rate,penicillium,93.8%
same,Killing rate,HBsAg,75%
same,sterilization rate,[5],above 99%
same,Killing rate,pseudomonas aeruginosa,99.9%
same,Killing rate,pseudomonas fluorescens,100%
same,Killing rate,staphylococcus albus,99.99%
same,Killing rate,HAsAg,100%
same,Killing rate,escherichia coli [6],100%
